The OPERA property sets (Mansouri et al. 2018)

details: not given

Row | Compound | boiling point [°C] | melting point [°C] | log10 Koa | log10 Henry constant (atm·m³/mol) | log10 vapour pressure (mmHg) | ready biodegradability | log10 Koc (L/kg) | log10 biodegradation half-life (days)
1 | IC(I)I | 218 | 119 | – | – | – | – | – | –
2 | Clc1cc2ccc(Cl)c(Cl)c2cc1Cl | – | – | 8.34 | – | – | – | – | –
3 | COCCO | 124 | – | – | -6.48 | 0.978 | readily biodegradable | – | –
4 | Clc1ccc2c(c1)Oc1c(Cl)c(Cl)c(Cl)c(Cl)c1O2 | – | 195 | 10.7 | – | -9.18 | – | – | –
5 | O=[N+]([O-])c1cc(Cl)cc(Cl)c1 | – | 65.4 | – | – | – | – | – | –
6 | COc1cc(CCCO)ccc1O | – | 65 | – | – | – | – | – | –
7 | CC=C(CC)C(C)C(=O)CC (stereo unspecified) | – | 74.5 | – | – | – | – | – | –
8 | Cc1cc2c(cc1O)[C@@]1(C)CCCC(C)(C)[C@@H]1CC2=O | – | 250 | – | – | – | – | – | –
9 | CCCCCOC(=O)Nc1ccccc1 | – | – | – | – | – | – | 2.61 | –
10 | C[C@@H]1[C@@H](c2ccc(Cl)cc2)SC(=O)N1C(=O)NC1CCCCC1 (single isomer, unassigned) | – | 108 | – | – | -7.59 | – | 3.79 | –
11 | O=[N+]([O-])c1ccccc1Nc1ccccc1 | – | 75 | – | – | -5 | – | – | –
12 | CCOC(=O)c1ccc(Br)cc1 | 263 | – | – | – | – | – | – | –
13 | CCC(=O)c1ccc2c(c1)N(CCCN(C)C)c1ccccc1S2 | – | 69.5 | – | – | – | – | – | –
14 | COC(=O)C1(S(=O)(=O)c2ccccc2)CCC1 | – | 108 | – | – | – | – | – | –
15 | CC(C)(C)c1ccc(CCOc2ncnc3ccccc23)cc1 | – | 78.5 | – | – | -7.59 | – | – | –
16 | C=CCCC | 29.9 | -165 | 1.93 | – | 2.8 | – | – | –
17 | CC(O)C(C)CO (stereo unspecified) | 200 | – | – | – | – | – | – | –
18 | COc1ccc(Cc2nccc3cc(OC)c(OC)cc23)cc1OC | – | 148 | – | – | – | – | – | –
19 | Nc1ccc(F)cc1 | 182 | -0.8 | – | – | – | – | – | –
20 | C=CCCCBr | 126 | – | – | – | – | – | – | –
21 | CCCCCCCC/C=C\CCCCCCCC(=O)[O-].[NH4+] | – | 71 | – | – | – | – | – | –
22 | c1cncnc1 | 124 | 22 | – | – | – | not readily biodegradable | – | –
23 | CCC#CCC | 81 | -103 | – | – | – | – | – | –
24 | c1ccc(Cc2ccc3ccccc3c2)cc1 | 350 | 58 | – | – | – | – | – | –
25 | C/C(=N\O)C(=O)c1ccccc1 | – | 114 | – | – | – | – | – | –

Row | Compound | boiling point [°C] | melting point [°C] | log10 Koa | log10 Henry constant (atm·m³/mol) | log10 vapour pressure (mmHg) | ready biodegradability | log10 Koc (L/kg) | log10 biodegradation half-life (days)
26 | CN[C@@H](Cc1ccc(O)cc1)C(=O)O | – | 293 | – | – | – | – | – | –
27 | C1CCC(NC2CCCCC2)CC1 | 256 | -0.1 | – | – | -1.47 | readily biodegradable | – | –
28 | c1cscn1 | 118 | – | – | – | 1.23 | – | – | –
29 | N#CCCO | 221 | -46 | – | – | -1.1 | – | – | –
30 | CCC(C)CC(C)CC (stereo unspecified) | 136 | – | – | – | – | – | – | –
31 | CCCCCCN(CCCCCC)CCCCCC | 262 | – | – | – | – | – | – | –
32 | O=C(OCc1ccco1)c1ccco1 | – | 27.5 | – | – | – | – | – | –
33 | CC(C)C=CC(=O)O | 217 | 35 | – | – | – | – | – | –
34 | CC(C)OC(=O)C1(S(=O)(=O)c2ccc(Cl)cc2)CCCC1 | – | 92.5 | – | – | – | – | – | –
35 | FC(F)(F)C(F)(C(F)(F)F)C(F)(F)F | 0 | – | – | – | – | – | – | –
36 | CC(C)[C@H](C(=O)OC(C#N)c1cccc(Oc2ccccc2)c1)c1ccc(OC(F)F)cc1 (stereo partly specified) | – | – | – | – | -8.06 | – | 5 | –
37 | O=[N+]([O-])N1CCCCC1 | 245 | -5.5 | – | – | – | – | – | –
38 | c1cc(-c2ccncc2)ccn1 | 305 | 111 | – | – | -4.25 | – | – | –
39 | C[C@H](O)CCc1ccccc1 | 239 | – | – | – | – | – | – | –
40 | C/C(=C\CNc1ncnc2[nH]cnc12)CO | – | 208 | – | – | – | – | – | –
41 | CCCOc1ccc2[nH]c(NC(=O)OC)nc2c1 | – | 230 | – | – | – | – | – | –
42 | CN(C)C=Nc1c(I)cc(I)c(CCC(=O)O)c1I | – | 168 | – | – | – | – | – | –
43 | CCCCCCCCCCCCCCC1CCCCC1 | 360 | 24 | – | – | – | – | – | –
44 | O=c1oc2ccccc2c(O)c1C1CC(c2ccc(-c3ccccc3)cc2)Cc2ccccc21 (stereo unspecified) | – | 216 | – | – | – | – | – | –
45 | c1cnc2ncncc2n1 | – | 140 | – | – | – | – | – | –
46 | C=CC1CC2C=CC1C2 (stereo unspecified) | 140 | -80 | – | – | 0.992 | – | – | –
47 | CCOC(=O)c1cnc2cc(OCC(C)C)c(OCC(C)C)cc2c1O | – | 290 | – | – | – | – | – | –
48 | Cc1cccc(C(C)c2ccccc2)c1C (stereo unspecified) | – | – | – | – | – | not readily biodegradable | – | –
49 | CCCC(CC)C(C)(C)C (stereo unspecified) | 156 | – | – | – | – | – | – | –
50 | COC(=O)c1cc(Cl)ccc1N | – | 67 | – | – | – | – | – | –

Row | Compound | boiling point [°C] | melting point [°C] | log10 Koa | log10 Henry constant (atm·m³/mol) | log10 vapour pressure (mmHg) | ready biodegradability | log10 Koc (L/kg) | log10 biodegradation half-life (days)
51 | CNc1ccc([N+](=O)[O-])cc1 | – | 152 | – | – | – | – | – | –
52 | CCCC(C)CC (stereo unspecified) | 91 | -119 | – | – | 1.79 | – | – | 0.954
53 | CCOC(=O)/C=C(C)/C=C/CC(C)CCCC(C)C (stereo unspecified) | – | – | – | – | -3.61 | – | – | –
54 | FC(F)(F)C(F)(F)C(F)(C(F)(F)F)C(F)(F)C(F)(F)F | 58.4 | -115 | – | – | – | – | – | –
55 | CCOC(=O)N1C(=O)c2ccccc2C1=O | – | 91 | – | – | – | – | – | –
56 | CCCCCCCCC(=O)N(CCO)CCO | – | – | – | – | – | readily biodegradable | – | –
57 | CC(=O)[C@@]1(C)CC[C@H]2[C@@H]3CCC4=CC(=O)CCC4=C3CC[C@@]21C | – | 106 | – | – | – | – | – | –
58 | CCCCCCCCCCCC(=O)NCCC[N+](C)(C)CC(=O)[O-] | – | – | – | – | – | readily biodegradable | – | –
59 | Cc1cc(Br)ccc1O | 235 | 64.7 | – | – | – | – | – | –
60 | CCCCCCCCOC(=O)c1ccccc1C(=O)OCCCCCCCC(C)C | 447 | 98 | – | – | – | – | – | –
61 | Nc1ccc(Oc2ccc(N)cc2)cc1 | 350 | – | – | – | – | not readily biodegradable | – | –
62 | CN1C(CCl)Nc2cc(Cl)c(S(N)(=O)=O)cc2S1(=O)=O (stereo unspecified) | – | 225 | – | – | – | – | – | –
63 | c1ccc2ncncc2c1 | 241 | 48 | – | – | – | – | – | –
64 | Clc1cc(-c2c(Cl)c(Cl)cc(Cl)c2Cl)c(Cl)c(Cl)c1Cl | – | – | – | -5 | – | – | – | –
65 | CCC(C)=C(C)C | 97.5 | -118 | – | – | 1.7 | – | – | –
66 | Clc1ccc(Cl)c(-c2ccc(Cl)c(Cl)c2)c1 | – | 106 | – | -4 | -4.39 | – | 4.86 | –
67 | CC(=O)Oc1cc(C(C)C)ccc1C | 246 | – | – | – | – | – | – | –
68 | Fc1ccc(C(F)(F)F)cc1 | 104 | -41.7 | – | – | – | – | – | –
69 | Nc1ccccc1S(=O)(=O)O | – | – | – | – | – | not readily biodegradable | – | –
70 | CC1=CCOCC1 | 118 | – | – | – | – | – | – | –
71 | O=C(O)CCCCCCCBr | – | 38.5 | – | – | – | – | – | –
72 | CCCCOCCOCCOC(C)=O | 245 | -32 | – | – | -1.4 | readily biodegradable | – | –
73 | C[Si](C)(C)O[Si](C)(C)O[Si](C)(C)O[Si](C)(C)C | 194 | -76 | – | 1.23 | -0.426 | – | – | –
74 | N#CC(F)(Cl)Cl | 33 | -110 | – | – | – | – | – | –
75 | Cc1cc(N)c2ncccc2c1 | – | 73 | – | – | – | – | – | –

Row | Compound | boiling point [°C] | melting point [°C] | log10 Koa | log10 Henry constant (atm·m³/mol) | log10 vapour pressure (mmHg) | ready biodegradability | log10 Koc (L/kg) | log10 biodegradation half-life (days)
76 | CSC(C)(C)C=NO | 210 | 21 | – | – | – | – | – | –
77 | O=C(Nc1ccc(O)cc1)c1ccccc1O | – | 179 | – | – | – | – | – | –
78 | CC(C)N(N=O)C(C)C | 194 | 48 | – | – | – | – | – | –
79 | CC1CC1 | 0.7 | -177 | – | – | 3.2 | – | – | –
80 | CCCCCCCC/C=C\CCCCCCCC(=O)[O-].[Na+] | – | 234 | – | – | – | – | – | –
81 | c1ccc(CC2CCCCN2)cc1 (stereo unspecified) | 268 | 32 | – | – | – | – | – | –
82 | CCOP(=S)(OCC)SCSCC | – | – | – | – | -3.2 | – | 2.7 | –
83 | Cc1cnc2ccccc2c1C | 291 | 73.5 | – | – | – | – | – | –
84 | FC(F)(F)C(F)(Cl)C(F)(F)Cl (stereo unspecified) | 34.1 | – | – | – | – | – | – | –
85 | Cc1ccc(C)c2ccccc12 | 268 | 7.6 | – | – | -1.67 | – | – | 1.18
86 | C#CC(C)N(C(=O)CCl)c1ccccc1 (stereo unspecified) | – | 43.5 | – | – | – | – | – | –
87 | COCCOCCOC | 162 | -68 | – | – | 0.471 | not readily biodegradable | – | –
88 | CC(=O)NS(=O)(=O)c1ccc(NC(=O)c2ccccc2C(=O)O)cc1 | – | 196 | – | – | – | – | – | –
89 | C[C@]12C=C(C=O)C(=O)C=C1CC[C@@H]1[C@@H]2[C@H](O)C[C@@]2(C)[C@H]1CC[C@]2(C)O | – | 210 | – | – | – | – | – | –
90 | FCC1CO1 (stereo unspecified) | 85.5 | – | – | – | – | – | – | –
91 | c1ccc(C2CCCC2)cc1 | 219 | – | – | – | – | – | – | –
92 | Brc1ccc(Oc2cccc(Br)c2)cc1 | – | – | 8.57 | – | – | – | – | –
93 | BrCC(Br)Br | 189 | -29.3 | – | – | – | – | – | –
94 | CC(NNC(=O)c1ccccc1)c1ccccc1 (stereo unspecified) | – | 93.5 | – | – | – | – | – | –
95 | c1ccc(CC2CCNCC2)cc1 | 270 | 16.8 | – | – | – | – | – | –
96 | COC1CC1 | 44.7 | -119 | – | – | – | – | – | –
97 | CCCOCOCCC | 140 | -97.3 | – | – | – | – | – | –
98 | CCCC(C)(C)Br | 142 | – | – | – | – | – | – | –
99 | Nc1cccc2c(N)cccc12 | – | 190 | – | – | – | not readily biodegradable | – | –
100 | CC(C)C(C)C(C)(C)C (stereo unspecified) | 133 | -121 | – | – | 1.1 | – | – | –

same assay, conditions: fish

Row | Compound | log10 BCF | log10 biotransformation half-life (days)
101 | O=[N+]([O-])c1cc(Cl)cc(Cl)c1 | 2.23 | 0.57
102 | Clc1cc(-c2c(Cl)c(Cl)cc(Cl)c2Cl)c(Cl)c(Cl)c1Cl | – | 2.47
103 | Clc1ccc(Cl)c(-c2ccc(Cl)c(Cl)c2)c1 | 5.08 | 2.65
104 | C[n+]1ccc(-c2cc[n+](C)cc2)cc1 | 0.28 | –
105 | Nc1cccc2c(N)cccc12 | 0.65 | -0.52
